Data from US12622910B2, “Inhibitors of Bruton's tyrosine kinase and methods of their use” (Janssen Pharmaceutica NV, priority 2021, dated 2026).
Like-named read-outs stand apart in the source and are kept apart here. Marks after values point to notes of the source that are not given here.

Experiments:
5-HT3 (h) = 5-HT3 (h) (Homo sapiens, UniProt P46098); test: Receptor panel, Study 1; format: binding
Experimental: (§1) RESULTS AND DISCUSSION—Selectivity—The compound of Formula (III) was evaluated in three selectivity panels to assess the potential for off-target pharmacology (Table 8). […] The kinase off-target profile of The compound of Formula (III) was assessed in a full human wild-type panel using radiometric kinase activity assays (KinaseProfiler™ and IC50Profiler™; Eurofins Scientific) (Table 9; FIG. 23). The compound of Formula (III) inhibited 4/278 kinases >50% at 1 micromolar, identifying BTK and the three other kinases having analogous Cys residues with the potential for covalent inhibition (BMX, TEC, BLK). […]. The cellular kinase selectivity of The compound of Formula (III) was established in native Ramos B cell kinome assays (KiNativ™; ActivX) confirmed BTK as the primary target with inhibition of BLK and TEC inhibition detected (Table 10).

A2A (h) = A2A (h) (Homo sapiens, UniProt P29274); test: Receptor panel, Study 1; format: binding
Sequence of A2A (h) (P29274 whole entry): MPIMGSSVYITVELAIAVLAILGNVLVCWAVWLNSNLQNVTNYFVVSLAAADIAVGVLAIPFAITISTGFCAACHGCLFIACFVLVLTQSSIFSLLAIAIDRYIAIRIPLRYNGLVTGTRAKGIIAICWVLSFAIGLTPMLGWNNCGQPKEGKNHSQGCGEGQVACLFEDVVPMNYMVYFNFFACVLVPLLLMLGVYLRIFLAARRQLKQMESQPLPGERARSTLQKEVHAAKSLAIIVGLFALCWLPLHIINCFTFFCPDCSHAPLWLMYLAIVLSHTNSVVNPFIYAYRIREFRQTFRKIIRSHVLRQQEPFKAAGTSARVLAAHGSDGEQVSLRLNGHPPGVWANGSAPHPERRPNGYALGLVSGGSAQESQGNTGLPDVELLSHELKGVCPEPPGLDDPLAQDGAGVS
Experimental: as §1

CCKA (h) (CCK1) = CCKA (h) (CCK1) (Homo sapiens, UniProt P32238); test: Receptor panel, Study 1; format: binding
Sequence of CCKA (h) (CCK1) (P32238 whole entry): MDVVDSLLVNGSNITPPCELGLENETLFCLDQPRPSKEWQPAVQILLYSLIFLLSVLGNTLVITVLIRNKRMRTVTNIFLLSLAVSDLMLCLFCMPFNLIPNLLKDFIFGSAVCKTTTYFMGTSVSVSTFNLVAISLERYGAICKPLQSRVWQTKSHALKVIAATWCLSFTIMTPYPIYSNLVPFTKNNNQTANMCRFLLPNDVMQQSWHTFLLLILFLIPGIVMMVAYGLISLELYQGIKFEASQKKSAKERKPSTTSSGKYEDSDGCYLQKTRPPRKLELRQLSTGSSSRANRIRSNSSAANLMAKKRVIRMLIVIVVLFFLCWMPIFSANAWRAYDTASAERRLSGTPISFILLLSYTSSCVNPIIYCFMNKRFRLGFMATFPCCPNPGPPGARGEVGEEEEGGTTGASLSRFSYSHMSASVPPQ
Experimental: as §1

NT1 (h) (NTS1) = NT1 (h) (NTS1) (Homo sapiens, UniProt P30989); test: Receptor panel, Study 1; format: binding
Sequence of NT1 (h) (NTS1) (P30989 whole entry): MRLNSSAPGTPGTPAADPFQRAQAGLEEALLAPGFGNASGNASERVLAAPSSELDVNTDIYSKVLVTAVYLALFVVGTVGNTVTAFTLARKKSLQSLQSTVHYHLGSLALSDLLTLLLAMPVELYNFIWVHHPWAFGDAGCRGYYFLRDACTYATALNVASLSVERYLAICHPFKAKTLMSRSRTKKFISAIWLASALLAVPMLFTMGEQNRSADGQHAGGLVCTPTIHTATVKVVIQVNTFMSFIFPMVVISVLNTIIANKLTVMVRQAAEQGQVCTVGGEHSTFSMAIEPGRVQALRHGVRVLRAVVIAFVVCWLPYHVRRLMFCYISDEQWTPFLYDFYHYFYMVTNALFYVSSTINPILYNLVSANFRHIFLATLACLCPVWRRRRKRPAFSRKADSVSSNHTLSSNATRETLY
Experimental: as §1

M1 (h) = M1 (h) (Homo sapiens, UniProt P11229); test: Receptor panel, Study 1; format: binding
Sequence of M1 (h) (P11229 whole entry): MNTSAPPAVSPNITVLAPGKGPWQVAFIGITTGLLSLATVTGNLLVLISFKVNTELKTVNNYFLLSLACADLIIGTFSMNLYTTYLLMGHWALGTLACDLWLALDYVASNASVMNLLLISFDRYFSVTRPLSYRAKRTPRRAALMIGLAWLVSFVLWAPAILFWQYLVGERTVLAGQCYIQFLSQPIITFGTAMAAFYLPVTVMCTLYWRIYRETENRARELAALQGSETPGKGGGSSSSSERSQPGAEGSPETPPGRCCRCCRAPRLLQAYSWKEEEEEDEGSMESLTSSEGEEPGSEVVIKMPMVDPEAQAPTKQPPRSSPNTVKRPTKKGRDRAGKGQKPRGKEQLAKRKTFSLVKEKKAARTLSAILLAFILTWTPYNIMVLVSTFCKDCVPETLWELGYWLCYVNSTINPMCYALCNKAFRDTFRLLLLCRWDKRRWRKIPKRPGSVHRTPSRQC
Experimental: as §1

Vla(h) = Vla(h) (Homo sapiens, UniProt P37288); test: Receptor panel, Study 1; format: binding
Sequence of Vla(h) (P37288 whole entry): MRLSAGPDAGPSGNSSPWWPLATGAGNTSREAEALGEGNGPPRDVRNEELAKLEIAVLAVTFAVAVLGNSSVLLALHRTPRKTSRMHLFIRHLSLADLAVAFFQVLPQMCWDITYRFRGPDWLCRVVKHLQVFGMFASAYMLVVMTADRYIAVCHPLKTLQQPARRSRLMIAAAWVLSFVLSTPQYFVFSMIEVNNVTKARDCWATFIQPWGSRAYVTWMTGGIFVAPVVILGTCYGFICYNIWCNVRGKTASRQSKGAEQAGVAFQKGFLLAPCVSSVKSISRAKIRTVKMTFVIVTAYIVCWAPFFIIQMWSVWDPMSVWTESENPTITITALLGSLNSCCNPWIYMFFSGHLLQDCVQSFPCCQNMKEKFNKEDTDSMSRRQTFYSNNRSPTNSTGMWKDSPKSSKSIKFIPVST
Experimental: as §1

Y1 (h) = Y1 (h) (Homo sapiens, UniProt P25929); test: Receptor panel, Study 1; format: binding
Sequence of Y1 (h) (P25929 whole entry): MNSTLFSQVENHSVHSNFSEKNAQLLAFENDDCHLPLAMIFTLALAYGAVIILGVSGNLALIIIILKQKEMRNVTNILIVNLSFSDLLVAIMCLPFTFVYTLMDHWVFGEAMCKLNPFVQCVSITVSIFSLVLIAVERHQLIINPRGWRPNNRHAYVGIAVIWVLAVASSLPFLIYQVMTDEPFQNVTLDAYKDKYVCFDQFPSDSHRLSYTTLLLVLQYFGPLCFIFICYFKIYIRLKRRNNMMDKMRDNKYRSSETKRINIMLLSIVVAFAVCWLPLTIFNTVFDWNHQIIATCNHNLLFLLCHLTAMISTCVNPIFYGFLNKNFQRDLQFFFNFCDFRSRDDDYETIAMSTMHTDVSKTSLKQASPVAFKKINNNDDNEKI
Experimental: as §1

D2S (h) = D2S (h) (Homo sapiens, UniProt P14416); test: Receptor panel, Study 1; format: binding
Sequence of D2S (h) (P14416 1-414 isoform P14416-2): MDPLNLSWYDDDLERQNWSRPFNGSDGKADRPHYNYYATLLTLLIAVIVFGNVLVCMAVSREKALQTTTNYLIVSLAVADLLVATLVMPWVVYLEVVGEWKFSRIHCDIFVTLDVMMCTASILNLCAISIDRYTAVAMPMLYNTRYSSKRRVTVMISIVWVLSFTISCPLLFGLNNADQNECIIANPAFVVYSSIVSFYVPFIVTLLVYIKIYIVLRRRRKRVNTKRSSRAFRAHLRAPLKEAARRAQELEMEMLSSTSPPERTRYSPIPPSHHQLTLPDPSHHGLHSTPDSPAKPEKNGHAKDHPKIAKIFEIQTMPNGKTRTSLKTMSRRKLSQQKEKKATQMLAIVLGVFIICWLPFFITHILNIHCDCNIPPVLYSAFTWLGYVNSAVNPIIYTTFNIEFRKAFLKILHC
Experimental: as §1

Y2 (h) = Y2 (h) (Homo sapiens, UniProt P49146); test: Receptor panel, Study 1; format: binding
Sequence of Y2 (h) (P49146 whole entry): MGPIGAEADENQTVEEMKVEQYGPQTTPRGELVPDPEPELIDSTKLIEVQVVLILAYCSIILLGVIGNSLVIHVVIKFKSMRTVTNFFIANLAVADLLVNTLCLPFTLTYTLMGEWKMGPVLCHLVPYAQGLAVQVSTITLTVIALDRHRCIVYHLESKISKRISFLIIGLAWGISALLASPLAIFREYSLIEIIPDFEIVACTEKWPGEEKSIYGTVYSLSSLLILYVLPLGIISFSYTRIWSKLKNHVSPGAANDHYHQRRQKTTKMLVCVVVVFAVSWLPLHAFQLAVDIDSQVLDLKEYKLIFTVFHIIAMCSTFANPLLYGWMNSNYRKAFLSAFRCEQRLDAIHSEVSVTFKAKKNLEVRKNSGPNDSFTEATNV
Experimental: as §1

MT1 (h) = MT1 (h) (Homo sapiens, UniProt P48039); test: Receptor panel, Study 1; format: binding
Sequence of MT1 (h) (P48039 whole entry): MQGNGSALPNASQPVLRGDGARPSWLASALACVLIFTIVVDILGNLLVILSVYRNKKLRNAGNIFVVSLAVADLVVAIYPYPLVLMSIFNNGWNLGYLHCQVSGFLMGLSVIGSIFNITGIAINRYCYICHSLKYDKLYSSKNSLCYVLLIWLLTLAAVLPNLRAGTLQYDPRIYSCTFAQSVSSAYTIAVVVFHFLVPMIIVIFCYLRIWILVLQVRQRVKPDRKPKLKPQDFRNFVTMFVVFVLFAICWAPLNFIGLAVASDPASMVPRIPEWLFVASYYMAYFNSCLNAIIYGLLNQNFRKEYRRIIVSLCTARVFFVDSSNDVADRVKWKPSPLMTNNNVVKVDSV
Experimental: as §1

mu (h) (MOP) = mu (h) (MOP) (Homo sapiens, UniProt P35372); test: Receptor panel, Study 1; format: binding
Experimental: as §1

H1 (h) = H1 (h) (Homo sapiens, UniProt P35367); test: Receptor panel, Study 1; format: binding
Sequence of H1 (h) (P35367 whole entry): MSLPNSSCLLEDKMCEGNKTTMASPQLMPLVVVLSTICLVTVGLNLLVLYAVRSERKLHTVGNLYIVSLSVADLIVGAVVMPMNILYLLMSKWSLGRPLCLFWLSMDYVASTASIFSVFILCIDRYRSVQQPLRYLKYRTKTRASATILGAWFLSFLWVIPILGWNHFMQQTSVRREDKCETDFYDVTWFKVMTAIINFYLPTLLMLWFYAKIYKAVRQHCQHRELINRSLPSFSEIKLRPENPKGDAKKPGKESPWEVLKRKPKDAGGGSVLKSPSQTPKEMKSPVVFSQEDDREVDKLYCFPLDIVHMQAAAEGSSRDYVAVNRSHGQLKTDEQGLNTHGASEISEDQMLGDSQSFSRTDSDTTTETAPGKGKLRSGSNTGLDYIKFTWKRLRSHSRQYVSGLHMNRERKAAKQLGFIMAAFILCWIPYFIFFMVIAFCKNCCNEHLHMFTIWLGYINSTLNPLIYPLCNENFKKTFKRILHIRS
Experimental: as §1

GABA = test: Receptor panel, Study 1; format: binding
Experimental: as §1

[1] = Preclinical PK, oral and IV; format: in vivo, rat; details: for Cmax / Tmax / AUC(0-inf): po, 5 mg/kg; for AUC(0-inf): read-out: Oral AUCinf
PXR = test: Puracyp DPX2 luciferase-reporter cell line (CYP3A4 induction); format: in vitro ADME
Experimental: To assess the potential of the compound of Formula (III) to be a time-dependent inhibitor of CYP3A, human liver microsomes were preincubated for 30 minutes at 37° C. with the compound of Formula (III) at concentrations up to 10 μM, and CYP3A activity was measured using testosterone as a probe substrate. […] The potential of the compound of Formula (III) to induce CYPs at the transcriptional level was assessed using Puracyp™ DPX2 (CYP3A4, PXR) and DRE (CYP1A2, AhR) luciferase-reporter cell lines; rifampicin and omeprazole were used as positive controls for CYP3A and CYP1A induction, respectively. The activation by the compound of Formula (III) was <20% of positive control values for PXR (6.6% and 14.1% at 1 and 10 μM change, respectively) or AhR (0.1% and 0.3% change, respectively). […] Potential involvement of various CYP isoforms in the metabolism of the compound of Formula (III) was investigated by measuring the parent compound remaining after 1-hour incubation with the compound of Formula (III) (1 μM) with recombinant CYPs (rCYPs) at 100 pmol P450/mL in the presence of 1 mM NADPH at 37° C. The only isozyme that produced notable the compound of Formula (III) turnover with <1% parent remaining after 1-hour incubation was CYP3A4 (FIG. 24). […]

[2] = rat, in vivo, 5 mg/kg crystalline suspension PO (0.5% HPMC)
[3] = rat, in vivo, 5 mg/kg solution PO (20% HPβCD)

Sequence of 5-HT3 (h) (P46098 24-478): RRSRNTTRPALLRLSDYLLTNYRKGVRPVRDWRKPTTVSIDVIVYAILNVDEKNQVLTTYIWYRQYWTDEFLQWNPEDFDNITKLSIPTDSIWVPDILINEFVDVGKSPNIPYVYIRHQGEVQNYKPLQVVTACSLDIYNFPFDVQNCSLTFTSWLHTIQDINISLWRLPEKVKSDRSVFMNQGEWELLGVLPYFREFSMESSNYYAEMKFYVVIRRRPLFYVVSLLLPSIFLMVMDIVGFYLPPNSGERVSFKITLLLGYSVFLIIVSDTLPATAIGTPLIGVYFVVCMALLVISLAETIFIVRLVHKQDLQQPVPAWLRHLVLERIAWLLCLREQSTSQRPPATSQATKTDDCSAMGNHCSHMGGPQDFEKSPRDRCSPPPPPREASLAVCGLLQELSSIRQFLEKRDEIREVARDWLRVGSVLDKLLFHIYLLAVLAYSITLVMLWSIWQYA

Work on `C=CC(=O)N[C@H]1CCC[C@H]1NC(=O)c1sc2nccc3c2c1NC(=O)N3c1cnc(CC(C)C)cc1C` (atropisomer, axis not shown) [compound of Formula (III), N-((1R,2S)-2-Acrylamidocyclopentyl)-5-(S)-(6-isobutyl-4-methylpyridin-3-yl)-4-oxo-4,5-dihydro-3H-1-thia-3,5,8-triazaacenaphthylene-2-carboxamide] yielded an inhibition at 10 µM (5-HT3 (h)) of less than 10%, an inhibition at 10 µM (A2A (h)) of less than 10% and an inhibition at 10 µM (CCKA (h) (CCK1)) of 23.7%. The inhibition at 10 µM (NT1 (h) (NTS1)) was less than 10%, the inhibition at 10 µM (M1 (h)) was less than 10% and the inhibition at 10 µM (Vla(h)) was less than 10%. It also gave an inhibition at 10 µM (Y1 (h)) of 44.4%, an inhibition at 10 µM (D2S (h)) of less than 10% and an inhibition at 10 µM (Y2 (h)) of less than 10%. For the same molecule, the inhibition at 10 µM (MT1 (h)) was 13.4%, the inhibition at 10 µM (mu (h) (MOP)) was less than 10% and the inhibition at 10 µM (H1 (h)) was less than 10%. For the same molecule, the “% Inhibition at 10 μM” value (GABA) was “— (no inhibition observed)”, the F ([1]; 5 mg/kg crystalline suspension PO (0.5% HPMC)) was 41 ± 19^b % and the F ([1]; 5 mg/kg solution PO (20% HPβCD)) was 28 ± 6^a; %. The clearance ([1]; rat, in vivo, iv) was 55 ± 2 mL/min/kg, the half-life ([1]; rat, in vivo, iv, read-out: IV T1/2 (converted)) was 24 min and the Vd ([1]; rat, in vivo, iv, read-out: Vss) was 1.9 ± 0.2 L/kg. The Cmax [1, 2] was 133 ± 53 ng/mL, the Tmax [1, 2] was 102 ± 36 min and the AUC(0-inf) [1, 2] was 626 ± 290 ng·h/mL. The Cmax [1, 3] was 189 ± 81 ng/mL, the Tmax [1, 3] was 30 min and the AUC(0-inf) [1, 3] was 425 ± 96 ng·h/mL. The “PXR activation, % of positive control (rifampicin)” value (PXR; 1 μM) was 6.6% and the “PXR activation, % of positive control (rifampicin)” value (PXR; 10 μM) was 14.1%.
